Source: ChEMBL document CHEMBL5385906, “Discovery of a Potent, Selective, and Orally Bioavailable Tool Compound for Probing the Role of Lysophosphatidic Acid Type 2 Receptor Antagonists in Fibrotic Disorders” (J Med Chem, 2023)
Each block holds one compound with its values, some of them ahead of it.

Assays:
[1] = biological target: Lysophosphatidic acid receptor 2 (Homo sapiens, UniProt Q9HBW0)
Description: Antagonist activity at human LPA2 receptor expressed in CHO cells assessed as inhibition of LPA-induced calcium mobilization pretreated for 15 mins followed by LPA stimulation by FLIPR analysis

[2] = biological target: Lysophosphatidic acid receptor 1 (Homo sapiens, UniProt Q92633)
Description: Antagonist activity at human LPA1 receptor expressed in CHO cells assessed as inhibition of LPA-induced calcium mobilization pretreated for 15 mins followed by LPA stimulation by FLIPR analysis

[3] = biological target: Lysophosphatidic acid receptor 2 (Mus musculus, UniProt Q9JL06); assay: Antagonist activity at mouse LPA2 receptor expressed in HeLa cells assessed as inhibition of LPA-induced calcium mobilization pretreated for 15 mins followed by LPA stimulation by FLIPR analysis; type: functional, cell-based
Chain of Lysophosphatidic acid receptor 2 (Mus musculus, UniProt Q9JL06) (Q9JL06 whole entry): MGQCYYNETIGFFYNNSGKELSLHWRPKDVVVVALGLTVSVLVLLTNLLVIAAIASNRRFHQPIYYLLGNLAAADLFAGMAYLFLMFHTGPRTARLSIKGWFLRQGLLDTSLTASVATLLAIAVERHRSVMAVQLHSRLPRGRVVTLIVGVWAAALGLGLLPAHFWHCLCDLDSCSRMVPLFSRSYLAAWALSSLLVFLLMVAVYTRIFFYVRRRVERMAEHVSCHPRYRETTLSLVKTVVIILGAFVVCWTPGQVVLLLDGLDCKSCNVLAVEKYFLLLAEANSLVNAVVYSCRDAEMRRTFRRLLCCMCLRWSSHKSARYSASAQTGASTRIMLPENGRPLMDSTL

[4] = Efflux ratio of apparent permeability across apical to basolateral to basolateral to apical side in human Caco-2 cells at 10 uM measured after 60 mins by LC-MS/MS analysis
[5] = Protein binding in mouse lungs assessed as fraction unbound at 5 uM measured after 5 hrs by LC-MS/MS analysis
in vivo [6] = settings: C57BL/6J, mouse, po, 30 mg/kg
[7] = Protein binding in mouse plasma assessed as fraction unbound at 0.5 uM measured after 5 hrs by LC-MS/MS analysis
[8] = Protein binding in human plasma assessed as fraction unbound at 0.5 uM measured after 5 hrs by LC-MS/MS analysis
[9] = Oral absorption in C57BL/6J mouse at 30 mg/kg by LC-MS/MS analysis; settings: in vivo
in vitro [10] = settings: C57BL/6J, mouse, liver microsomes
Description: Intrinsic clearance in C57BL/6J mouse liver microsomes at 0.5 uM in presence of NADPH regenerating system measured for 45 mins per mg protein by LC-MS/MS analysis

in vivo [11] = settings: C57BL/6J, mouse, plasma, po, 30 mg/kg
in vivo [12] = settings: C57BL/6J, mouse, lung, po, 30 mg/kg
[13] = Apparent permeability across apical to basolateral side in human Caco-2 cells at 10 uM measured after 60 mins by LC-MS/MS analysis
in vitro [14] = settings: human, liver microsomes, CLH
Description: Intrinsic clearance in human liver microsomes at 0.5 uM in presence of NADPH regenerating system measured for 45 mins per mg protein by LC-MS/MS analysis

in vivo [15] = settings: C57BL/6J, mouse, plasma, po, 30 mg/kg; remark: listed apart in the source
[16] = Apparent permeability across basolateral to apical side in human Caco-2 cells at 10 uM measured after 60 mins by LC-MS/MS analysis
[17] = Half life in C57BL/6J mouse at 30 mg/kg, po and 2 mg/kg, iv by LC-MS/MS analysis; settings: in vivo
in vivo [18] = settings: C57BL/6J, mouse, lung, po, 30 mg/kg; remark: listed apart in the source

Chain of Lysophosphatidic acid receptor 2 (Homo sapiens, UniProt Q9HBW0) (Q9HBW0 whole entry): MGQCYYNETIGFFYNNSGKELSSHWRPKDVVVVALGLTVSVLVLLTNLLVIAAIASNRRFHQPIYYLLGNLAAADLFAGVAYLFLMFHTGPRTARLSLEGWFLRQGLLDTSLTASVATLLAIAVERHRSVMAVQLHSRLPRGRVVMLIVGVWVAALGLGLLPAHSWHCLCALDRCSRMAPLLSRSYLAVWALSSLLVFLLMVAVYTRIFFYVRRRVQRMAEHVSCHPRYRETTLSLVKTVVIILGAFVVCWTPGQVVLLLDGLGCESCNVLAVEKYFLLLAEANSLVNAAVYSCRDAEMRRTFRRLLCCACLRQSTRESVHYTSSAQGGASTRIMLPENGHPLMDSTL
Chain of Lysophosphatidic acid receptor 1 (Q92633 whole entry): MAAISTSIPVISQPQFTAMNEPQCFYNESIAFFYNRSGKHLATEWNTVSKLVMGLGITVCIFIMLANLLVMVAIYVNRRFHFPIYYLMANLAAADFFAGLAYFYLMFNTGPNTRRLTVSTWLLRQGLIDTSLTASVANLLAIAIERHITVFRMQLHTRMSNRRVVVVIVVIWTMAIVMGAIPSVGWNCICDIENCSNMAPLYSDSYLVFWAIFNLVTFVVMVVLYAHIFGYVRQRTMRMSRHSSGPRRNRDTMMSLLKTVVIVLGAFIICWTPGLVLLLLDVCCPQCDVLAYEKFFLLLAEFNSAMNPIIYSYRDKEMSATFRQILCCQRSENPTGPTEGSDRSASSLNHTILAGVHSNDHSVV

SMILES: Cc1csc2c(NCC(C)N3CCN(S(=O)(=O)c4ccc(Cl)c(Cl)c4)CC3)ncnc12 (stereo in doubt; 6a)
- IC50 [1]: 14.5 µM

SMILES: COC(=O)Nc1nc(C)c(S(=O)(=O)N2CCN(C[C@H](C)Nc3ncnc4c(-c5ccc(F)c(CN(C)C)c5)cccc34)CC2)s1
- IC50 [2]: > 50.1 µM
- IC50 ([3]; read-out: IC50): 0.00646 µM

SMILES: CC(CN1CCN(S(=O)(=O)c2ccc(Cl)c(Cl)c2)CC1)Nc1ccncn1 (racemic)
- IC50 [2]: 21.9 µM

SMILES: COC(=O)Nc1nc(C)c(S(=O)(=O)N2CCN(C[C@H](C)Nc3ncnc4c(-c5sc(C)nc5C)cccc34)CC2)s1
- efflux ratio at 1 h, 10 µM [4]: 0.6
- fraction unbound at 5 h, 5 µM [5]: 0.022
- bioavailability (in vivo [6]): 64%
- fraction unbound at 5 h, 0.5 µM [7]: 0.0372
- fraction unbound at 5 h, 0.5 µM [8]: 0.0002
- IC50 [2]: > 0.501 µM
- Fa [9]: 76%
- microsomal CLint at 0.75 h, 0.5 µM (in vitro [10]): 15 µL/min/mg
- AUC(0-t) (in vivo [11]): 230000 ng·h/mL
- Cmax (in vivo [12]): 19900 ng/mL
- Papp A→B at 1 h, 10 µM [13]: 9.2 ×10⁻⁶ cm/s
- microsomal CLint at 0.75 h, 0.5 µM (in vitro [14]): 15 µL/min/mg
- IC50 [1]: 0.000251 µM
- IC50 ([3]; read-out: pIC50 (converted)): 0.00692 µM
- Cmax (in vivo [15]): 72300 ng/mL
- Papp B→A at 1 h, 10 µM [16]: 5.39 ×10⁻⁶ cm/s
- half-life [17]: 1.88 h
- AUC(0-t) (in vivo [18]): 56200 ng·h/mL

SMILES: CC(CN1CCN(S(=O)(=O)c2ccc(Cl)c(Cl)c2)CC1)Nc1ncnc2c1ncn2C (racemic)
- IC50 [2]: 20.4 µM
- IC50 [1]: 19.1 µM

SMILES: C[C@@H](CN1CCN(S(=O)(=O)c2ccc(Cl)c(Cl)c2)CC1)Nc1ncnc2cc(C(F)(F)F)ccc12
- IC50 [1]: 18.2 µM

SMILES: Cc1cccc2c(NC(C)CN3CCN(S(=O)(=O)c4ccc(Cl)c(Cl)c4)CC3)ncnc12 (stereo in doubt; 42a)
- IC50 [2]: > 50.1 µM
- IC50 [1]: > 50.1 µM

SMILES: COC(=O)Nc1nc(C)c(S(=O)(=O)N2CCN(C[C@H](C)Nc3ncnc4c(-c5cccnc5)cccc34)CC2)s1
- IC50 [2]: > 5.01 µM
- IC50 ([3]; read-out: pIC50 (converted)): 0.00257 µM

SMILES: C[C@@H](CN1CCN(S(=O)(=O)c2ccc(Cl)c(Cl)c2)CC1)Nc1ncnc2cc[nH]c12
- IC50 [1]: 15.8 µM

SMILES: COC(=O)Nc1nc(C)c(S(=O)(=O)N2CCN(C[C@H](C)Nc3ncnc4c(-c5ccc(CN6CCCC6)cc5)cccc34)CC2)s1
- IC50 ([3]; read-out: pIC50 (converted)): 0.0174 µM

SMILES: C[C@@H](CN1CCN(S(=O)(=O)c2ccc(Cl)c(Cl)c2)CC1)Nc1ncnc2cnn(C)c12
- IC50 [1]: 17.4 µM

SMILES: Cc1csc2c(N[C@@H](C)CN3CC4CC3CN4S(=O)(=O)c3ccc(Cl)c(Cl)c3)ncnc12 (stereo not given in full)
- IC50 [2]: 18.2 µM
- IC50 [1]: 11.2 µM

SMILES: Cc1csc2c(N[C@@H](C)CN3CCN(S(=O)(=O)c4ccc(Cl)c(Cl)c4)CC34CC4)ncnc12
- IC50 [1]: 9.33 µM

SMILES: Cc1csc2c(N[C@@H](C)CNC3CCC(NS(=O)(=O)c4ccc(Cl)c(Cl)c4)CC3)ncnc12 (stereo not given in full)
- IC50 [1]: 35.5 µM

Other lines, results leading:

- IC50 [1]: 4.57 µM
SMILES: CC(=O)Nc1ncc(S(=O)(=O)N2CCN(C[C@H](C)Nc3ncnc4c(C)csc34)CC2)s1

- IC50 [1]: 0.0437 µM
SMILES: Cc1noc(-c2ccc(S(=O)(=O)N3CCN(C[C@H](C)Nc4ncnc5c(C)csc45)CC3)s2)c1C

- IC50 [1]: 16.2 µM
SMILES: Cc1csc2c(N[C@@H](C)CN3CCN(S(=O)(=O)C(=O)c4ccc(Cl)c(Cl)c4)CC3)ncnc12

- IC50 [1]: 2.82 µM
SMILES: Cc1ccc(S(=O)(=O)N2CCN(C[C@H](C)Nc3ncnc4c(C)csc34)CC2)cc1C

- IC50 [1]: 25.1 µM
SMILES: Cc1csc2c(N[C@@H](C)CN3CCN(S(=O)(=O)C4CCCCC4)CC3)ncnc12

- IC50 [1]: 3.63 µM
SMILES: Cc1csc2c(N[C@@H](C)CN3CCN(S(=O)(=O)c4ccc(Cl)cc4Cl)CC3)ncnc12

- efflux ratio at 1 h, 10 µM [4]: 6.3
- fraction unbound at 5 h, 5 µM [5]: 0.0185
- bioavailability (in vivo [6]): 92%
- fraction unbound at 5 h, 0.5 µM [7]: 0.0043
- fraction unbound at 5 h, 0.5 µM [8]: < 0.01
- IC50 [2]: > 50.1 µM
- Fa [9]: 96%
- microsomal CLint at 0.75 h, 0.5 µM (in vitro [10]): 94 µL/min/mg
- AUC(0-t) (in vivo [11]): 124000 ng·h/mL
- Cmax (in vivo [12]): 15100 ng/mL
- Papp A→B at 1 h, 10 µM [13]: 1.47 ×10⁻⁶ cm/s
- microsomal CLint at 0.75 h, 0.5 µM (in vitro [14]): 89 µL/min/mg
- IC50 [1]: 0.000759 µM
- IC50 ([3]; read-out: pIC50 (converted)): 0.0282 µM
- Cmax (in vivo [15]): 76200 ng/mL
- Papp B→A at 1 h, 10 µM [16]: 9.29 ×10⁻⁶ cm/s
- half-life [17]: 1.32 h
- AUC(0-t) (in vivo [18]): 25800 ng·h/mL
SMILES: COC(=O)Nc1nc(C)c(S(=O)(=O)N2CCN(C[C@H](C)Nc3ncnc4c(-c5c(C)noc5C)cccc34)CC2)s1
